System: HIV-1 clinical isolates grouped by RT mutations
Experiment: Pairwise comparison of NNRTI fold change between groups of clinical isolates (Student's T-test, Bonferroni's Multiple Comparison Test)
Assay type: cell-based
Description: This example provides methods and compositions for identifying mutations that correlate with hypersusceptibility to a NNRTI. Resistance test vectors were constructed and used as described in Example 1. Resistance test vectors derived from patient samples or clones derived from the resistance test vector pools were tested in a resistance assay to determine accurately and quantitatively the relative EFV, DLV, or NVP resistance or susceptibility compared to the median observed resistance or susceptibility.
To identify mutations associated with NNRTI hypersusceptibility, the following analysis was performed. […] The TAMs referenced in. Table 1 include M41L, D67N, K70R, L210W, T215FY, and K219X, while the NAMs referenced include K65R, T69X, L74IV, V75X, and M184IV. Isolates without NRTI, NNRTI or PI mutations served as a wild type (WT) reference group. Further comparison groups comprised isolates with three TAMS including T215Y (+/−H208Y, +/−V118I) or three TAMS including K70R. Scatter plots and statistical tests (See FIGS. 1-6) were generated using Prism 4.0 (GraphPad, San Diego, Calif.)
In addition, a pairwise comparison between two sets of data was conducted using Bonferroni's Multiple Comparison Test using the Prism 4.0 software. The results of the comparison are presented in Tables 2, 3, and 4, appended to the end of this document. Samples with K65R, K65R+M184V, or 2 TAMs in combination with T215Y had over 40% with EFV FC<0.4.

CC(C)Nc1cccnc1N1CCN(C(=O)c2cc3cc(NS(C)(=O)=O)ccc3[nH]2)CC1 [DLV, delavirdine]
Mean Diff. of fold change (1 NAM vs 2 NAMs): 0.2985 | Mean Diff. of fold change (1 NAM vs 3 NAMs): 0.293 | Mean Diff. of fold change (1 NAM vs K65R): 0.3868 | Mean Diff. of fold change (1 NAM vs K65R + M184V): 0.5114 | Mean Diff. of fold change (1 NAM vs K70R_3_TAMs): −0.5755 | Mean Diff. of fold change (1 NAM vs M184V): −0.007762 | Mean Diff. of fold change (1 NAM vs T69): −0.1256 | Mean Diff. of fold change (1 NAM vs T215Y_3_TAMs): 0.6784 | Mean Diff. of fold change (1 NAM vs T215Y_3_TAMs_118): 0.6483 | Mean Diff. of fold change (1 NAM vs T215Y_3_TAMs_208): 0.7831 | Mean Diff. of fold change (1 NAM vs T215Y_3_TAMs_no118): 0.6983 | Mean Diff. of fold change (1 NAM vs T215Y_3_TAMs_no208): 0.6612 | Mean Diff. of fold change (2 NAMs vs 3 NAMs): −0.005498 | Mean Diff. of fold change (2 NAMs vs K65R): 0.08826 | Mean Diff. of fold change (2 NAMs vs K65R + M184V): 0.2128 | Mean Diff. of fold change (2 NAMs vs K70R_3_TAMs): −0.874 | Mean Diff. of fold change (2 NAMs vs M184V): −0.3063 | Mean Diff. of fold change (2 NAMs vs T69): −0.4242 | Mean Diff. of fold change (2 NAMs vs T215Y_3_TAMs): 0.3799 | Mean Diff. of fold change (2 NAMs vs T215Y_3_TAMs_118): 0.3498 | Mean Diff. of fold change (2 NAMs vs T215Y_3_TAMs_208): 0.4845 | Mean Diff. of fold change (2 NAMs vs T215Y_3_TAMs_no118): 0.3997 | Mean Diff. of fold change (2 NAMs vs T215Y_3_TAMs_no208): 0.3627 | Mean Diff. of fold change (3 NAMs vs K65R): 0.09376 | Mean Diff. of fold change (3 NAMs vs K65R + M184V): 0.2183 | Mean Diff. of fold change (3 NAMs vs K70R_3_TAMs): −0.8685 | Mean Diff. of fold change (3 NAMs vs M184V): −0.3008 | Mean Diff. of fold change (3 NAMs vs T69): −0.4187 | Mean Diff. of fold change (3 NAMs vs T215Y_3_TAMs): 0.3854 | Mean Diff. of fold change (3 NAMs vs T215Y_3_TAMs_118): 0.3553 | Mean Diff. of fold change (3 NAMs vs T215Y_3_TAMs_208): 0.49 | Mean Diff. of fold change (3 NAMs vs T215Y_3_TAMs_no118): 0.4052 | Mean Diff. of fold change (3 NAMs vs T215Y_3_TAMs_no208): 0.3682 | Mean Diff. of fold change (K65R + M184V vs K70R_3_TAMs): −1.087 | Mean Diff. of fold change (K65R + M184V vs T215Y_3_TAMs): 0.167 | Mean Diff. of fold change (K65R + M184V vs T215Y_3_TAMs_118): 0.137 | Mean Diff. of fold change (K65R + M184V vs T215Y_3_TAMs_208): 0.2717 | Mean Diff. of fold change (K65R + M184V vs T215Y_3_TAMs_no118): 0.1869 | Mean Diff. of fold change (K65R + M184V vs T215Y_3_TAMs_no208): 0.1499 | Mean Diff. of fold change (K65R vs K65R + M184V): 0.1246 | Mean Diff. of fold change (K65R vs K70R_3_TAMs): −0.9623 | Mean Diff. of fold change (K65R vs M184V): −0.3946 | Mean Diff. of fold change (K65R vs T69): −0.5124 | Mean Diff. of fold change (K65R vs T215Y_3_TAMs): 0.2916 | Mean Diff. of fold change (K65R vs T215Y_3_TAMs_118): 0.2615 | Mean Diff. of fold change (K65R vs T215Y_3_TAMs_208): 0.3963 | Mean Diff. of fold change (K65R vs T215Y_3_TAMs_no118): 0.3115 | Mean Diff. of fold change (K65R vs T215Y_3_TAMs_no208): 0.2744 | Mean Diff. of fold change (K70R_3_TAMs vs T215Y_3_TAMs_118): 1.224 | Mean Diff. of fold change (K70R_3_TAMs vs T215Y_3_TAMs_no118): 1.274 | Mean Diff. of fold change (M184V vs K65R + M184V): 0.5191 | Mean Diff. of fold change (M184V vs K70R_3_TAMs): −0.5677 | Mean Diff. of fold change (M184V vs T69): −0.1179 | Mean Diff. of fold change (M184V vs T215Y_3_TAMs): 0.6862 | Mean Diff. of fold change (M184V vs T215Y_3_TAMs_118): 0.6561 | Mean Diff. of fold change (M184V vs T215Y_3_TAMs_208): 0.7908 | Mean Diff. of fold change (M184V vs T215Y_3_TAMs_no118): 0.706 | Mean Diff. of fold change (M184V vs T215Y_3_TAMs_no208): 0.669 | Mean Diff. of fold change (T69 vs K65R + M184V): 0.637 | Mean Diff. of fold change (T69 vs K70R_3_TAMs): −0.4499 | Mean Diff. of fold change (T69 vs T215Y_3_TAMs): 0.8041 | Mean Diff. of fold change (T69 vs T215Y_3_TAMs_118): 0.774 | Mean Diff. of fold change (T69 vs T215Y_3_TAMs_208): 0.9087 | Mean Diff. of fold change (T69 vs T215Y_3_TAMs_no118): 0.8239 | Mean Diff. of fold change (T69 vs T215Y_3_TAMs_no208): 0.7869 | Mean Diff. of fold change (T215Y_3_TAMs vs K70R_3_TAMs): −1.254 | Mean Diff. of fold change (T215Y_3_TAMs vs T215Y_3_TAMs_118): −0.03008 | Mean Diff. of fold change (T215Y_3_TAMs vs T215Y_3_TAMs_208): 0.1046 | Mean Diff. of fold change (T215Y_3_TAMs vs T215Y_3_TAMs_no118): 0.01984 | Mean Diff. of fold change (T215Y_3_TAMs vs T215Y_3_TAMs_no208): −0.01718 | Mean Diff. of fold change (T215Y_3_TAMs_208 vs K70R_3_TAMs): −1.359 | Mean Diff. of fold change (T215Y_3_TAMs_208 vs T215Y_3_TAMs_118): −0.1347 | Mean Diff. of fold change (T215Y_3_TAMs_208 vs T215Y_3_TAMs_no118): −0.0848 | Mean Diff. of fold change (T215Y_3_TAMs_208 vs T215Y_3_TAMs_no208): −0.1218 | Mean Diff. of fold change (T215Y_3_TAMs_no118 vs T215Y_3_TAMs_118): −0.04992 | Mean Diff. of fold change (T215Y_3_TAMs_no208 vs K70R_3_TAMs): −1.237 | Mean Diff. of fold change (T215Y_3_TAMs_no208 vs T215Y_3_TAMs_118): −0.0129 | Mean Diff. of fold change (T215Y_3_TAMs_no208 vs T215Y_3_TAMs_no118): 0.03702 | mean fold change (FC) compared to the WT population (all groups containing NAMs or the combination of TAMs shown in Table 1, p<0.0001, Student's T-test): significantly lower | Mean Diff. of fold change (wt vs 1 NAM): 0.3819 | Mean Diff. of fold change (wt vs 2 NAMs): 0.6804 | Mean Diff. of fold change (wt vs 3 NAMs): 0.6749 | Mean Diff. of fold change (wt vs K65R): 0.7687 | Mean Diff. of fold change (wt vs K65R + M184V): 0.8932 | Mean Diff. of fold change (wt vs K70R_3_TAMs): −0.1936 | Mean Diff. of fold change (wt vs M184V): 0.3741 | Mean Diff. of fold change (wt vs T69): 0.2562 | Mean Diff. of fold change (wt vs T215Y_3_TAMs): 1.06 | Mean Diff. of fold change (wt vs T215Y_3_TAMs_118): 1.03 | Mean Diff. of fold change (wt vs T215Y_3_TAMs_208): 1.165 | Mean Diff. of fold change (wt vs T215Y_3_TAMs_no118): 1.08 | Mean Diff. of fold change (wt vs T215Y_3_TAMs_no208): 1.043

From patent US10202658B2, “Methods for determining hypersusceptibility of HIV-1 to non-nucleoside reverse transcriptase inhibitors” (Monogram Biosciences, Inc., priority 2005, dated 2019)
